According to paper PMC12645083, “Microwave‐Enhanced Synthesis of 2‐Styrylquinoline‐4‐Carboxamides With Promising Anti‐Lymphoma Activity” (Archiv Der Pharmazie, 2025):

How the values were obtained:
MDA-MB-231 = assay: In vitro antiproliferative activity, resazurin cell viability; type: cell-based; settings: Homo sapiens, triple-negative breast cancer, 72 h of treatment, mean ± SEM
Experimental: (§1) To test the newly synthesized compounds, various human cell lines were employed. HD‐MB03 cells were purchased from DSMZ (Braunschweig, Germany), while A549, MDA‐MB‐231, RPMI‐8420, SU‐DHL‐8, TOLEDO, VL51, SU‐DHL‐1, SU‐DHL‐18, and KM‐H2 were obtained from ATCC (Manassas, VA, USA). Cells were cultured in DMEM (for MDA‐MB‐231 and A549) or RPMI‐1640 (for RPMI‐8420, SU‐DHL‐8, TOLEDO, VL51, SU‐DHL‐1, SU‐DHL‐18, KM‐H2, and HD‐MB03) media (Gibco, Milan, Italy). Both media were supplemented with 115 units/mL penicillin G (Gibco, Milan, Italy), 115 µg/mL streptomycin (Invitrogen, Milan, Italy), and 10% fetal bovine serum (Invitrogen, Milan, Italy). Peripheral blood mononuclear cells (PBMCs) were isolated from healthy donors as previously described. For cytotoxicity assays, PBMCs were resuspended at 5 × 10⁵ cells/mL in complete RPMI medium with or without 2.5 µg/mL phytohemagglutinin (PHA) (Irvine Scientific) to stimulate T‐cell activation and proliferation. All cell lines were maintained at 37°C in a humidified atmosphere containing 5% CO₂. All compounds were dissolved in DMSO at a 10 mM stock concentration. For dose–response assays, cells were seeded in 96‐well plates at densities optimized for each cell line: HD‐MB03 at 10,000 cells/well, A549 at 4000 cells/well, and MDA‐MB‐231 at 7000 cells/well. All other cell lines were seeded at 20,000 cells/well in a final volume of 100 µL per well. After 24 h, cells were treated with a 6‐point serial dilution of compounds starting from 10 µM, in triplicate for statistical analysis. Seventy‐2 h posttreatment, 10 µL of resazurin solution (100 µg/mL) was added to each well, and cells were incubated for an additional 3–6 h. Fluorescence was measured using a Spark 10 M microplate reader (Tecan Group Ltd., Männedorf, Switzerland) with excitation at 535 nm and emission at 600 nm. The IC₅₀ was defined as the concentration of compound required to inhibit cell proliferation by 50% compared to cells treated with the highest DMSO concentration.
(§2) To test the newly synthesized compounds, various human cell lines were employed. HD-MB03 cells were purchased from DSMZ (Braunschweig, Germany), while A549, MDA-MB-231, RPMI-8420, SU-DHL-8, TOLEDO, VL51, SU-DHL-1, SU-DHL-18, and KM-H2 were obtained from ATCC (Manassas, VA, USA). Cells were cultured in DMEM (for MDA-MB-231 and A549) or RPMI-1640 (for RPMI-8420, SU-DHL-8, TOLEDO, VL51, SU-DHL-1, SU-DHL-18, KM-H2, and HD-MB03) media (Gibco, Milan, Italy). Both media were supplemented with 115 units/mL penicillin G (Gibco, Milan, Italy), 115 µg/mL streptomycin (Invitrogen, Milan, Italy), and 10% fetal bovine serum (Invitrogen, Milan, Italy). Peripheral blood mononuclear cells (PBMCs) were isolated from healthy donors as previously described. ^[1] For cytotoxicity assays, PBMCs were resuspended at 5 × 10⁵ cells/mL in complete RPMI medium with or without 2.5 µg/mL phytohemagglutinin (PHA) (Irvine Scientific) to stimulate T cell activation and proliferation. All cell lines were maintained at 37 °C in a humidified atmosphere containing 5% CO₂. All compounds were dissolved in DMSO at a 10 mM stock concentration. For dose–response assays, cells were seeded in 96-well plates at densities optimized for each cell line: HD-MB03 at 10,000 cells/well, A549 at 4,000 cells/well, and MDA-MB-231 at 7,000 cells/well. All other cell lines were seeded at 20,000 cells/well in a final volume of 100 µL per well. After 24 hours, cells were treated with a 6-point serial dilution of compounds starting from 10 µM, in triplicate for statistical analysis. Seventy-two hours post-treatment, 10 µL of resazurin solution (100 µg/mL) was added to each well, and cells were incubated for an additional 3–6 hours. Fluorescence was measured using a Spark 10M microplate reader (Tecan Group Ltd., Männedorf, Switzerland) with excitation at 535 nm and emission at 600 nm. […]

RPMI-8402 = assay: as above; type: cell-based; settings: Homo sapiens, T-lymphoblastic leukemia cells, 72 h of treatment, mean ± SEM
Experimental: as §1, §2

SU-DHL-8 = assay: as above; type: cell-based; settings: Homo sapiens, B lymphocyte, large cell lymphoma, 72 h of treatment, mean ± SEM
Experimental: as §1, §2

HD-MB03 = assay: as above; type: cell-based; settings: Homo sapiens, medulloblastoma cells, 72 h of treatment, mean ± SEM, at least three experiments
Experimental: as §1, §2

A549 = assay: as above; type: cell-based; settings: Homo sapiens, non-small cell lung cancer, 72 h of treatment, mean ± SEM
Experimental: as §1, §2

[1] = test system: panel of five tumor cell lines (HD-MB03, RPMI-8402, SU-DHL-8, A549, MDA-MB-231); assay: Antiproliferative activity, range over the panel of five tumor cell lines; type: cell-based; settings: Homo sapiens; range over the active cell lines of the five-line panel; 72 h
Experimental: The synthesized quinoline derivatives 4a–z and 4aa–ah were evaluated in vitro for their antiproliferative activity against a panel of five tumor cell lines (HD‐MB03, medulloblastoma; RPMI‐8402, T‐lymphoblastic leukemia; SU‐DHL‐8, B lymphocyte, large cell lymphoma; A549, non‐small cell lung cancer; MDA‐MB‐231, triple‐negative breast cancer) (Table 2). […] Replacing the 4‐Cl group with a trifluoromethyl group (4ac) reduced antiproliferative activity.
as §1

Ly10 (DLBCL) = settings: Figure 1; cited from earlier work
[2] = test system: VL51 (splenic B-cell lymphoma); settings: Figure 1; cited from earlier work
TMD8 (DLBCL) = settings: Figure 1; cited from earlier work
Ly1 (DLBCL) = settings: Figure 1; cited from earlier work

| Structure (SMILES) | IC50 (MDA-MB-231) | IC50 (SU-DHL-8) | IC50 (A549) | IC50 [1] | IC50 (RPMI-8402) | IC50 (HD-MB03) | IC50 (Ly10 (DLBCL)) | IC50 [2] | IC50 (TMD8 (DLBCL)) | IC50 (Ly1 (DLBCL)) |
| --- | --- | --- | --- | --- | --- | --- | --- | --- | --- | --- |
| O=C(Nc1ccc(C(F)(F)F)cc1)c1cc(/C=C/c2ccc(Cl)c(Cl)c2)nc2ccccc12 [4ab, (E)-2-(3,4-dichlorostyryl)-N-(4-(trifluoromethyl)phenyl)quinoline-4-carboxamide] | > 10 µM | 6.54 ± 0.44 µM | > 10 µM | 3.2 to 8.97 µM | > 10 µM | 7.83 ± 0.98 µM | – | – | – | – |
| O=C(Nc1ccc([N+](=O)[O-])c(C(F)(F)F)c1)c1cc(/C=C/c2ccccc2)nc2ccccc12 [4j, (E)-N-(4-nitro-3-(trifluoromethyl)phenyl)-2-styrylquinoline-4-carboxamide] | > 10 µM | 3.86 ± 0.44 µM | > 10 µM | 3.2 to 8.97 µM | > 10 µM | 8.23 ± 0.47 µM | – | – | – | – |
| C[C@H](Nc1ncnc2[nH]cnc12)c1cc2ccc(F)cc2nc1-c1ccccn1 [ACP-319] | – | – | – | – | – | – | 0.8 µM | 3 µM | 0.15 µM | – |
| O=S(=O)(Nc1cccc2cccnc12)c1ccc(F)cc1 [CU-O47] | – | – | – | – | – | – | 0.7 µM | – | – | 0.7 µM |
| O=C(Nc1ccc([N+](=O)[O-])c(C(F)(F)F)c1)c1cc(/C=C/c2ccc(Cl)cc2)nc2ccccc12 [4w, (E)-2-(4-chlorostyryl)-N-(4-nitro-3-(trifluoromethyl)phenyl)quinoline-4-carboxamide] | > 10 µM | 8.25 ± 0.67 µM | > 10 µM | 3.2 to 8.97 µM | 3.56 ± 0.44 µM | > 10 µM | – | – | – | – |
| Cc1cccc(/C=C/c2cc(C(=O)Nc3ccc([N+](=O)[O-])c(C(F)(F)F)c3)c3ccccc3n2)c1 [4u, (E)-2-(3-methylstyryl)-N-(4-nitro-3-(trifluoromethyl)phenyl)quinoline-4-carboxamide] | > 10 µM | > 10 µM | > 10 µM | – | > 10 µM | > 10 µM | – | – | – | – |

Further lines, with some results ahead:

| IC50 (MDA-MB-231) | IC50 (SU-DHL-8) | IC50 (A549) | IC50 [1] | Structure (SMILES) | IC50 (RPMI-8402) | IC50 (HD-MB03) | IC50 (Ly10 (DLBCL)) | IC50 [2] | IC50 (TMD8 (DLBCL)) | IC50 (Ly1 (DLBCL)) |
| --- | --- | --- | --- | --- | --- | --- | --- | --- | --- | --- |
| 7.84 ± 0.65 µM | 3.25 ± 0.23 µM | 8.73 ± 0.74 µM | 3.2 to 8.97 µM | Cc1cccc(/C=C/c2cc(C(=O)Nc3ccc(C(F)(F)F)cc3)c3ccccc3n2)c1 [4y, (E)-2-(3-methylstyryl)-N-(4-(trifluoromethyl)phenyl)quinoline-4-carboxamide] | 3.2 ± 0.19 µM | 3.84 ± 0.22 µM | – | – | – | – |
| > 10 µM | 7.09 ± 0.25 µM | > 10 µM | 3.2 to 8.97 µM | O=C(Nc1ccc(C(F)(F)F)cc1)c1cc(/C=C/c2ccccc2)nc2ccccc12 [4h, (E)-2-styryl-N-(4-(trifluoromethyl)phenyl)quinoline-4-carboxamide] | 8.97 ± 0.75 µM | > 10 µM | – | – | – | – |
| > 10 µM | 4.77 ± 0.32 µM | > 10 µM | 3.2 to 8.97 µM | O=C(Nc1ccc(C(F)(F)F)cc1)c1cc(/C=C/c2ccc(Cl)cc2)nc2ccccc12 [4z, (E)-2-(4-chlorostyryl)-N-(4-(trifluoromethyl)phenyl)quinoline-4-carboxamide] | > 10 µM | 6.73 ± 1.15 µM | – | – | – | – |
| > 10 µM | 2.13 ± 0.08 µM | > 10 µM | – | COc1cc(/C=C/c2cc(C(=O)Nc3ccc(C(F)(F)F)cc3)c3ccccc3n2)cc(OC)c1OC [4r, (E)-N-(4-(trifluoromethyl)phenyl)-2-(3,4,5-trimethoxystyryl)quinoline-4-carboxamide] | > 10 µM | > 10 µM | – | – | – | – |
| > 10 µM | > 10 µM | > 10 µM | – | COc1cc(/C=C/c2cc(C(=O)Nc3ccc([N+](=O)[O-])c(C(F)(F)F)c3)c3ccccc3n2)cc(OC)c1OC [4t, (E)-N-(4-nitro-3-(trifluoromethyl)phenyl)-2-(3,4,5-trimethoxystyryl)quinoline-4-carboxamide] | > 10 µM | > 10 µM | – | – | – | – |
